Paper PMC7004565, “Nucleotide inhibition of the pancreatic ATP-sensitive K^+ channel explored with patch-clamp fluorometry” (eLife, 2020)
Several values for one entry are separate records, joined by “and”; a condition that tells them apart may be missing. Equal values may be shown once.

Assays:
Kir6.2-GFP + SUR1 [1] = biological target: T1, Kir6.2-GFP + SUR1 (Homo sapiens, UniProt Q14654); test: Current inhibition in excised inside-out patches (patch-clamp fluorometry); type: biochemical; design: full length, fully ANAP-labelled Kir6.2 protein was produced and successfully trafficked to the membrane in the presence of SUR1; expressed in transfected cells; host or cells: HEK-293T; conditions: excised inside-out patches, Mg2+-free, Hill fit
T1 sequence (Q14654 whole entry): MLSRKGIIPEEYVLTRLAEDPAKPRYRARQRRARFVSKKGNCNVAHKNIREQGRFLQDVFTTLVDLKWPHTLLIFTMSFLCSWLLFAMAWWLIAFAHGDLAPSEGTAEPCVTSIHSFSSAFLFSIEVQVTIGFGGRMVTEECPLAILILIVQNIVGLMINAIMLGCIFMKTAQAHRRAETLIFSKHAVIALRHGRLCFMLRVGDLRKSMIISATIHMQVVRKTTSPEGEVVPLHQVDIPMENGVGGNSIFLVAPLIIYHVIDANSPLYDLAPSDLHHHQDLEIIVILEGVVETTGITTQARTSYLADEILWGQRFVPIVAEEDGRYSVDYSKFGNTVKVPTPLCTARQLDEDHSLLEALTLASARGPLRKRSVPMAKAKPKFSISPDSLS
T1 sequence (Q09428 whole entry partner): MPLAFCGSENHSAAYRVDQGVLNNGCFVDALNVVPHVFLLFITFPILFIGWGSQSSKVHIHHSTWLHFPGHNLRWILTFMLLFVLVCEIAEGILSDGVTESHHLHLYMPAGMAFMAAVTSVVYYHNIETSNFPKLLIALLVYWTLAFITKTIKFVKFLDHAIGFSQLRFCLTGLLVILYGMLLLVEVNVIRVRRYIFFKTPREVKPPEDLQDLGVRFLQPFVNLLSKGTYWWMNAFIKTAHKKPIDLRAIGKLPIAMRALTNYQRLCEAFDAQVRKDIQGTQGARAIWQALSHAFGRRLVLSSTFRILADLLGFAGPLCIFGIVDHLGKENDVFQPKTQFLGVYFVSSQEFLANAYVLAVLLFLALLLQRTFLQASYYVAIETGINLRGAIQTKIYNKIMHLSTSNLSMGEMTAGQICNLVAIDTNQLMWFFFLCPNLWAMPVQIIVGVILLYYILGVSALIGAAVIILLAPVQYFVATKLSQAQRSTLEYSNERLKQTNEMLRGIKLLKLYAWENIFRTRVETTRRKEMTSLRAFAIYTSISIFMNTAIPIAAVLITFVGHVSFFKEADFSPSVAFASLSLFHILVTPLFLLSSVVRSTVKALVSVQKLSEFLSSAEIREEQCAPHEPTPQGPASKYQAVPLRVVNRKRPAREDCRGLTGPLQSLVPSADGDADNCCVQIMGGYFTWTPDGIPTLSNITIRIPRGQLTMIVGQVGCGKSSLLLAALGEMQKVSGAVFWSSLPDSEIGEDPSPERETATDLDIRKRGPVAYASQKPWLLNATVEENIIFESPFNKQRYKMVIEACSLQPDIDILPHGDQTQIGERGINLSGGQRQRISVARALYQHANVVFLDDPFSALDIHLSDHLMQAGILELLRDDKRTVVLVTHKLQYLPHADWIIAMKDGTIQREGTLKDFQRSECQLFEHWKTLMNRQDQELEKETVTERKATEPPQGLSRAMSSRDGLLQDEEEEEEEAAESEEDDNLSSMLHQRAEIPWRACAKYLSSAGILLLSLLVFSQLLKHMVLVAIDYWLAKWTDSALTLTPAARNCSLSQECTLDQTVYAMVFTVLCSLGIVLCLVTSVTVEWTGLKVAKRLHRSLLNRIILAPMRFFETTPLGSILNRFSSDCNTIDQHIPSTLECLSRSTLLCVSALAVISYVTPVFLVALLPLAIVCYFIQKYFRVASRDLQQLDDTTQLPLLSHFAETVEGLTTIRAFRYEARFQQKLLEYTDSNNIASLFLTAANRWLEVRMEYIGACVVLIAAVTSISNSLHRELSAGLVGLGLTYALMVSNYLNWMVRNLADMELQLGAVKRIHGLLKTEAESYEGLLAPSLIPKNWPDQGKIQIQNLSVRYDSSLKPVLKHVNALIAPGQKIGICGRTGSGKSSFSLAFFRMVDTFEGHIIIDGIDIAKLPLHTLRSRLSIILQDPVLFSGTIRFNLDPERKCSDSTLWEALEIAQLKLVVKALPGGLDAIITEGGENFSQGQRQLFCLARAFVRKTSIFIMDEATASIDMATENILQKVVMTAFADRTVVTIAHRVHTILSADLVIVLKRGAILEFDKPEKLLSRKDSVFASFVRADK
Procedure: (§1) Currents were measured from patches from cells expressing KATP that were excised in the absence of Mg^2+. Under such conditions, nucleotides can bind to both sites on SUR1, but no activation occurs, allowing inhibitory currents to be measured in isolation ([Gribble et al., 1998]; [Ueda et al., 1999]; [Puljung et al., 2019]).
Currents were measured as described above.

Kir6.2-GFP + SUR1 [2] = biological target: T1, Kir6.2-GFP + SUR1; test: Current inhibition in excised inside-out patches; type: biochemical; design: ANAP labelling is specific and only full-length Kir6.2 is expressed at the cell membrane; expressed in transfected cells; host or cells: HEK-293T; conditions: Mg2+-free, Hill fit
Procedure: as §1

Kir6.2-GFP + SUR1 [3] = biological target: T1, Kir6.2-GFP + SUR1; test: FRET (ANAP quenching) nucleotide binding in unroofed membranes; design: full length, fully ANAP-labelled Kir6.2 protein was produced and successfully trafficked to the membrane in the presence of SUR1; expressed in transfected cells; host or cells: HEK-293T; conditions: Hill fit
From the text: To measure nucleotide binding, cells transfected with Kir6.2*-GFP + SUR1 were briefly sonicated, leaving behind unroofed plasma membrane fragments ([Heuser, 2000]; [Zagotta et al., 2016]; [Puljung et al., 2019]) containing ANAP-labelled KATP channels with the intracellular nucleotide-binding sites exposed to the bath solution. The sample was excited with a 385 nm LED and emitted fluorescence from the membrane fragments was passed through a spectrometer, allowing us to separate ANAP, GFP, and TNP-ATP fluorescence by peak wavelength (Figure 1E,F). As expected from FRET, increasing the concentration of TNP-ATP caused a decrement in the ANAP peak at 472 nm and a concomitant increase in the TNP-ATP peak at 561 nm (Figure 1F). We used the quenching of the ANAP peak as a direct measure of TNP-ATP binding as this signal was specific to KATP. In contrast, the peak TNP-ATP fluorescence may include contributions from both specific and non-specific nucleotide binding, as well as direct excitation of TNP-ATP in solution by the 385 nm excitation light. Due to the sharp cut-off of the GFP emission spectrum at shorter wavelengths, our measurements of peak ANAP fluorescence were unaffected by the presence of the GFP tag on Kir6.2. […]
Epifluorescence imaging and spectroscopy were performed using a Nikon Eclipse TE2000-U microscope with a 60x water immersion objective (Plan Apo VC, NA = 1.2, Nikon; Kingston upon Thames, UK) or a 100x oil immersion objective (Nikon, Apo TIRF, NA = 1.49). […] Fluorescence spectra were collected by exciting ANAP as above but using a 400 nm long-pass emission filter (ThorLabs), then passing emitted light through an IsoPlane 160 Spectrometer (Princeton Instruments; Trenton, NJ) with a 300 grooves mm^-1 grating. […]
Unroofed membranes were prepared as described previously ([Heuser, 2000]; [Zagotta et al., 2016]; [Puljung et al., 2019]). […] Unroofed membrane fragments were nearly invisible in bright-field images and identified by their GFP and ANAP fluorescence. […]

## Nc1ncnc2c1ncn2[C@@H]1O[C@H](COP(=O)(O)OP(=O)(O)OP(=O)(O)O)[C@H]2OC3(O[C@H]21)C([N+](=O)[O-])=CC(=[N+]([O-])[O-])C=C3[N+](=O)[O-] (stereo partly shown) [TNP-ATP, trinitrophenyl-ATP]
Kir6.2-GFP + SUR1 [1]; IC50 current inhibition
  IC50: 6.2 µM and 6.23 µM and 6.17 µM
Kir6.2-GFP + SUR1 [1]
  h (Hill coefficient) current inhibition: 0.92
Kir6.2-GFP + SUR1 [2]; IC50 current inhibition
  IC50: 1.2 µM and 1.17 µM
Kir6.2-GFP + SUR1 [2]
  h (Hill coefficient) current inhibition: 1.14
Kir6.2-GFP + SUR1 [3]
  h (Hill coefficient) fluorescence quenching: 0.82
Kir6.2-GFP + SUR1 [3]; fraction, read-out: Emax fluorescence quenching
  Emax: 93%
Kir6.2-GFP + SUR1 [3]; n = 18, read-out: EC50 fluorescence quenching
  EC50: 25.6 µM and 25.7 µM
